Measurements taken from patent publication US7026339B2, “Inhibitors of HCV NS5B polymerase” (priority 2003, dated 2006).

test system: HuH-7 replicon cells 5–15 and 9–13 (HCV replication); assay: Inhibition of viral replication in HuH-7 replicon cells (HCV RNA / GAPDH RNA by multiplex RT-PCR); assay type: cell-based; conditions: Hepatitis C virus, 72 h; inhibiting 50% of replication; HuH-7 replicon cells, 3 days; read-out: IC50
Description: Compounds were evaluated for inhibition of viral replication according to published procedures (Bartenschlager, R., et. al., Science, 1999, 285, 110) with modifications as follows.
HuH-7 replicon cells 5–15 and 9–13 were cultured in Dulbecco's minimal essential medium (DMEM) containing high glucose and supplemented with 10% fetal bovine serum (FBS), L-glutamine (2 mM), non-essential amino acids (1×), Penicillin (100 IU/mL)/Streptomycin (100 μg/mL) and G418 (Geneticin, 750 μg/mL). Unless otherwise specified, all media components were obtained from Invitrogen. Replicon cell line stocks were maintained as sub-confluent monolayers by passaging every Monday (1:6 split) and Thursday (1:10 split) and incubated at 37° C. with 5% CO2. Tissue culture plates (96-well white clear bottom plates, Corning #3610) were seeded at 7×10^3 cells/well and incubated for 24 hours prior to addition of the compounds.
Compounds in dry powder form were diluted in DMSO (30 mM stock). Serial dilutions of each Compound in DMSO (10 mM–0.1 mM) were performed in a 96-well polypropylene plate using a microtiter format. Culture media (200 μl) was added to the corresponding wells of a sterile 96-well round bottom plate. Diluted compound (2 μl) was added to the corresponding wells of the medial plate (final compound concentrations: 100 μM–1 μM). Culture media was removed from the corresponding wells of the 96-well plate containing the replicon cells and 150 μl diluted compound added. Media containing 1% DMSO and a serially diluted IFN were included on each plate. The cultures were incubated at 37° C. with 5% CO2 for 3 days. Cultures were observed visually for cytotoxicity or compound precipitation prior to RNA extraction described below.
Total cellular RNA was extracted by spin column technology (RNeasy 96, Qiagen) using the vacuum methodology according to the manufacturer's protocol. In brief, culture media was removed and 100 μl RLT lysis buffer containing 0.14M β-mercaptoethanol (β-ME) was added to each well. The plate was kept flat on the laboratory bench and shaken vigorously to lyse the cells. An equal volume of 70% ETOH was mixed with the lysate and added to the corresponding columns of the RNeasy 96-well plate. Vacuum was applied to draw the lysate through the filters. After ventilating the plate, buffer RW1 (1 mL) was drawn through each column. The waste tray was emptied and the filters washed twice with buffer RPE (1 mL/wash). After ventilating the tray, the RNeasy plate was removed and the bottom of the plate struck several times on a stack of paper towels to remove excess wash buffer. The waste tray was removed from the vacuum apparatus and the RNeasy 96-well plate dried by applying vacuum for 10 minutes. Total cellular RNA was eluted from the columns with two washes of 60 μl RNase-free water.
Relative quantitative multiplex RT-PCR was performed using TaqMan (TM) EZ RT Core Reagent kit (Perkin Elmer) according to the manufacturer's protocol (PE Applied Biosystems User Bulletin #2). Primer 061 (NT 61–82) and 139 (NT 139–158) amplifying a short region in the 5′ untranslated region of the HCV genome were utilized at 300 nM final concentrations. Probe #3 (NT 97–119) labeled with FAM reporter dye was utilized at 200 nM final concentration. Pre-developed human GAPDH primers and probe labeled with VIC reporter dye were obtained from PE Applied Biosystems (# 4310884E) and used according to the manufacturer's protocol. TM RT-PCR master mix was prepared containing the above primers/probe for both target RNA. Total cellular RNA (2 μl) was added to the reaction tubes of a 96-well optical plate that corresponded to the wells of the replicon culture plate. The final volume of each reaction was 50 μl. A standard curve was prepared from ten-fold serial dilutions of total cellular RNA extracated from 10^6 replicon cells and eluted in 30 μl RNase-free water. […]

Row | Structure (SMILES) | IC50
1 | O=C(Cc1ccncc1)N/N=C/c1ccccc1OS(=O)(=O)c1ccc(C(F)(F)F)cc1 [Compound 1, 2-{(E)-[2-(2-pyridin-4-ylacetyl)-hydrazono]methyl}phenyl 4-(trifluoromethyl)benzenesulfonate] | 5 to 50 µM
2 | O=C(CCc1ccccc1)N/N=C/c1ccccc1OS(=O)(=O)c1ccc(C(F)(F)F)cc1 [Compound 2, 2-{(E)-[2-(3-phenylpropanoyl)-hydrazono]methyl}phenyl 4-(trifluoromethyl)benzenesulfonate] | < 5 µM
3 | O=C(Cc1c[nH]c2ccccc12)N/N=C/c1ccccc1OS(=O)(=O)c1ccc(C(F)(F)F)cc1 [Compound 3, 2-((E)-{2-[2-(1H-indol-3-yl)-acetyl]hydrazono}methyl)phenyl 4-(trifluoromethyl)benzene-sulfonate] | < 5 µM
4 | O=C(Cc1cccs1)N/N=C/c1ccccc1OS(=O)(=O)c1ccc(C(F)(F)F)cc1 [Compound 4, 2-{(E)-[2-(2-thien-2-ylacetyl)-hydrazono]methyl}phenyl 4-(trifluoromethyl)benzenesulfonate] | < 5 µM
5 | O=C(Cc1c[nH]cn1)N/N=C/c1ccccc1OS(=O)(=O)c1ccc(C(F)(F)F)cc1 [Compound 5, 2-((E)-{2-[2-(1H-imidazol-4-yl)acetyl]hydrazono}methyl)phenyl 4-(trifluoromethyl)benzenesulfonate] | < 5 µM
6 | O=C(Cc1cccnc1)N/N=C/c1ccccc1OS(=O)(=O)c1ccc(C(F)(F)F)cc1 [Compound 6, 2-{(E)-[2-(2-pyridin-3-ylacetyl)hydrazono]methyl}phenyl 4-(trifluoromethyl)benzenesulfonate] | < 5 µM
7 | O=C(Cc1ccc(Cl)cc1)N/N=C/c1ccccc1OS(=O)(=O)c1ccc(C(F)(F)F)cc1 [Compound 7, 2-((E)-{2-[2-(4-chlorophenyl)acetyl]hydrazono}methyl)-phenyl 4-(trifluoromethyl)benzenesulfonate] | < 5 µM
8 | O=C(Cc1ccc(F)cc1)N/N=C/c1ccccc1OS(=O)(=O)c1ccc(C(F)(F)F)cc1 [Compound 8, 2-((E)-{2-[2-(4-fluorophenyl)acetyl]hydrazono}methyl)-phenyl 4-(trifluoromethyl)benzenesulfonate] | < 5 µM
9 | O=C(Cc1ccc(F)c(Cl)c1)N/N=C/c1ccccc1OS(=O)(=O)c1ccc(C(F)(F)F)cc1 [Compound 9, 2-((E)-{2-[2-(3-chloro-4-fluorophenyl)acetyl]hydrazono}methyl)-phenyl 4-(trifluoromethyl)benzenesulfonate] | < 5 µM
10 | O=C(Cc1ccc(F)cc1Cl)N/N=C/c1ccccc1OS(=O)(=O)c1ccc(C(F)(F)F)cc1 [Compound 10, 2-((E)-{2-[2-(2-chloro-4-fluorophenyl)acetyl]hydrazono}methyl)-phenyl 4-(trifluoromethyl)benzenesulfonate] | < 5 µM
11 | CN(C)c1ccc(CC(=O)N/N=C/c2ccccc2OS(=O)(=O)c2ccc(C(F)(F)F)cc2)cc1 [Compound 11, 2-[(E)-(2-{2-[4-(dimethylamino)phenyl]acetyl}hydrazono)-methyl]phenyl 4-(trifluoromethyl)benzenesulfonate] | < 5 µM
12 | O=C(Cc1c(F)c(F)c(F)c(F)c1F)N/N=C/c1ccccc1OS(=O)(=O)c1ccc(C(F)(F)F)cc1 [Compound 12, 2-((E)-{2-[2-(pentafluorophenyl)acetyl]hydrazono}-methyl)phenyl 4-(trifluoromethyl)benzenesulfonate] | > 50 µM
13 | O=C(Cc1ccc(F)c(C(F)(F)F)c1)N/N=C/c1ccccc1OS(=O)(=O)c1ccc(C(F)(F)F)cc1 [Compound 13, 2-[(E)-(2-{2-[4-fluoro-3-(trifluoromethyl)phenyl]acetyl}hydrazono)-methyl]phenyl 4-(trifluoromethyl)benzenesulfonate] | < 5 µM
14 | O=C(Cc1ccc(C(F)(F)F)c(F)c1)N/N=C/c1ccccc1OS(=O)(=O)c1ccc(C(F)(F)F)cc1 [Compound 14, 2-[(E)-(2-{2-[3-fluoro-4-(trifluoromethyl)phenyl]acetyl}hydrazono)-methyl]phenyl 4-(trifluoromethyl)benzenesulfonate] | < 5 µM
15 | COc1ccc(CC(=O)N/N=C/c2ccccc2OS(=O)(=O)c2ccc(C(F)(F)F)cc2)c(OC)c1OC [Compound 15, 2-((E)-{2-[2-(2,3,4-trimethoxyphenyl)acetyl]hydrazono}-methyl)phenyl 4-(trifluoromethyl)-benzenesulfonate] | < 5 µM
16 | O=C(Cc1ccc(F)c(F)c1F)N/N=C/c1ccccc1OS(=O)(=O)c1ccc(C(F)(F)F)cc1 [Compound 16, 2-((E)-{2-[2-(2,3,4-trifluorophenyl)acetyl]hydrazono}methyl)-phenyl 4-(trifluoromethyl)benzenesulfonate] | < 5 µM
17 | O=C(Cc1cc(F)c(F)cc1F)N/N=C/c1ccccc1OS(=O)(=O)c1ccc(C(F)(F)F)cc1 [Compound 17, 2-((E)-{2-[2-(2,4,5-trifluorophenyl)acetyl]hydrazono}methyl)-phenyl 4-(trifluoromethyl)benzenesulfonate] | < 5 µM
18 | O=C(Cc1cc(F)c(F)c(F)c1)N/N=C/c1ccccc1OS(=O)(=O)c1ccc(C(F)(F)F)cc1 [Compound 18, 2-((E)-{2-[2-(3,4,5-trifluorophenyl)acetyl]hydrazono}methyl)-phenyl 4-(trifluoromethyl)benzenesulfonate] | < 5 µM
19 | O=C(Cc1ccc(SC(F)(F)F)cc1)N/N=C/c1ccccc1OS(=O)(=O)c1ccc(C(F)(F)F)cc1 [Compound 19, 2-{(E)-[2-(2-{4-[(trifluoromethyl)thio]phenyl}acetyl)hydra-zono]methyl}phenyl 4-(trifluoromethyl)benzenesulfonate] | 5 to 50 µM
20 | O=C(Cc1cc(F)cc(F)c1F)N/N=C/c1ccccc1OS(=O)(=O)c1ccc(C(F)(F)F)cc1 [Compound 20, 2-((E)-{2-[2-(2,3,5-trifluorophenyl)acetyl]hydrazono}methyl)-phenyl 4-(trifluoromethyl)benzenesulfonate] | < 5 µM
21 | O=C(Cc1cccc(OC(F)(F)F)c1)N/N=C/c1ccccc1OS(=O)(=O)c1ccc(C(F)(F)F)cc1 [Compound 21, 2-[(E)-(2-{2-[3-(trifluoromethoxy)phenyl]acetyl}hydrazono)-methyl]phenyl 4-(trifluoromethyl)benzenesulfonate] | < 5 µM
22 | O=C(Cc1c(Cl)ccc(Cl)c1Cl)N/N=C/c1ccccc1OS(=O)(=O)c1ccc(C(F)(F)F)cc1 [Compound 22, 2-((E)-{2-[2-(2,3,6-trichlorophenyl)acetyl]hydrazono}methyl)-phenyl 4-(trifluoromethyl)benzenesulfonate] | > 50 µM
23 | O=C(Cc1cc(F)cc(C(F)(F)F)c1)N/N=C/c1ccccc1OS(=O)(=O)c1ccc(C(F)(F)F)cc1 [Compound 23, 2-[(E)-(2-{2-[3-fluoro-5-(trifluoromethyl)phenyl]acetyl}hydrazono)-methyl]phenyl 4-(trifluoromethyl)benzenesulfonate] | < 5 µM
24 | COc1cccc(CC(=O)N/N=C/c2ccccc2OS(=O)(=O)c2ccc(C(F)(F)F)cc2)c1OC [Compound 24, 2-((E)-{2-[2-(2,3-dimethoxyphenyl)acetyl]hydrazono}methyl)-phenyl 4-(trifluoromethyl)benzenesulfonate] | < 5 µM
25 | O=C(Cc1ccccc1SC(F)(F)F)N/N=C/c1ccccc1OS(=O)(=O)c1ccc(C(F)(F)F)cc1 [Compound 25, 2-{(E)-[2-(2-{2-[(trifluoromethyl)thio]-phenyl}acetyl)hydrazono]methyl}phenyl 4-(trifluoromethyl)benzenesulfonate] | < 5 µM
26 | CSc1ccc(CC(=O)N/N=C/c2ccccc2OS(=O)(=O)c2ccc(C(F)(F)F)cc2)cc1 [Compound 26, 2-[(E)-(2-{2-[4-(methylthio)phenyl]acetyl}hydrazono)methyl]-phenyl 4-(trifluoromethyl)benzenesulfonate] | < 5 µM
